Assays:
C. albicans [1] = experiment: Depletion of intestinal C. albicans with fluconazole in antibiotic cocktail treated mice; assay type: in vivo, mouse; details: C. albicans mono-colonized mice, 10 days after adding fluconazole to antibiotic-supplemented drinking water
[2] = system: DSS induced intestinal injury; experiment: DSS induced intestinal injury (survival, colon length, permeability, histology); assay type: in vivo, mouse; details: for susceptibility to DSS (mortality): antibiotic treated mice, intrarectal administration every other day from one day prior to DSS
[3] = system: Th17 CD4+ T cells and circulating neutrophils; experiment: Systemic immune cell analysis (tetramer staining, cytokine production, IL-17RC, reactive oxygen) in colonized mice; details: fluconazole treated colonized mice
From the text: Fluorophore- or biotin-conjugated antibodies used mouse cell analysis are as follows: anti-CD4 (GK1.5, eBioscience), anti-CD8a (53-6.7, eBioscience), anti-CD11b (M1/70, Biolegend), anti-CD11c (N418, Biolegend), anti-F4/80 (BM8, eBioscience), anti-B220 (RA3-6B2, Biolegend), anti-CD44 (IM7, Biolegend), anti-CD45 (30F11, invitrogen), anti-Ly6G (1A8, BD bioscience), anti-Ly6C (HK1.4, Biolegend), anti-Gr1 (RB6-8C5, eBioscience), anti-IL-17RC (polyclonal IgG, R&D Systems), anti-FOXP3 (FJK-16S, eBioscience), anti-RORγt (Q31-378, BD bioscience), anti-T-bet (4B10, Biolegend), anti-IFN-γ (XMG1.2, eBioscience), anti-IL17A (TC 11-18H10.1, Biolegend), anti-IL17F (9D3.1C8, Biolegend). Fluorophore-conjugated antibodies were used for human cell analysis are as follows: anti-CD4 (OKT4, eBioscience), anti-CD15 (H198, invitrogen), anti-CD16 (3G8, Biolegend), anti-IL-17A (eBio64DEC17, eBioscience), anti-IL17F (O33-782, BD Bioscience), anti-IL17RC (309822, R&D Systems) with staining in the presence of Human Fc block (BD Bioscience). […] Single cell suspensions from spleen and peripheral lymph nodes were stained with APC conjugated I-Ab:2W1S55-68 tetramer at room temperature for 60 minutes, and enriched using anti-APC antibody conjugated magnetic beads (Militenyi Biotec) as described (Moon et al., Immunity 27:203-213 (2007)). Samples were acquired using an FACSCanto (BD) cytometer and analyzed using FlowJo software (Tree Star).

[4] = system: allergic airway inflammation; experiment: House dust mite airway reactivity and inflammation; assay type: in vivo, mouse; details: colonized mice, colonization eradicated with fluconazole
Experimental: Mice were anesthetized with ketamine/xylazine and hung by their front incisors on an angled stand. 100 μg house dust mite extract (Greer Laboratories) in 40 μL sterile saline was administered intratracheally. 10 days later, mice were challenged with the same amount of house dust mite extract. 48 hours after the second intratracheal challenge, airway resistance in response to inhaled methacholine (100 mg/mL) was measured using FlexiVent (SCIREQ). Saline perfused lungs were minced and digested with collagenase D (1 mg/mL) and DNAse (0.1 mg/mL) in DMEM media supplemented with 10% fetal bovine serum, 1% L-glutamine, 10 mM HEPES, 1% penicillin-streptomycin (Cellgro) for 30 minutes at 37° C. with gentle shaking (200 rpm). The tissue digest was then passed through a 70 μm filter to obtain single cell suspensions.

C. albicans [5] = details: mouse, in vivo
influenza A virus = assay type: in vivo, mouse
C. albicans [6] = details: mouse, in vivo; remark: listed apart in the source
NF-κB = experiment: RAW-Blue stimulation and quantification of NF-κB activity; assay type: cell-based, murine; details: 500 μg/mL
Experimental: RAW-Blue cells (InvivoGen) cells are derived from the murine RAW 264.7 macrophages with chromosomal integration of a secreted embryonic alkaline phosphatase reporter construct induced by NF-κB. 5×10^4 RAW-Blue cells were seeded 24 hours prior to addition of the indicated blocking antibody. One hour thereafter, mannan (Sigma) was added at a final concentration of 500 μg/mL. Supernatants were collected after 24 hours to quantify NF-κB activity by colorimetric assay using QUANTI-Blue reagent (InvivoGen).

[7] = antibiotic treated mice, intrarectal administration

OC(Cn1cncn1)(Cn1cncn1)c1ccc(F)cc1F [fluconazole]
recoverable fungi in the feces (C. albicans [1]): rapidly declined to undetectable levels | survival and time-to-death after DSS challenge ([2]; mouse, in vivo): efficiently abolished the improved survival and delayed time-to-death | IL-17RC expression by circulating leukocyte and neutrophils [3]: similarly overturned | RORγt expression by I-Ab:2W1S specific CD4+ T cells [3]: reduced to background levels | expansion of circulating neutrophils [3]: similarly overturned | neutrophil production of reactive oxygen species [3]: similarly overturned | number of CD4+ T cells with commensal C. albicans I-Ab:2W1S specificity [3]: reduced to background levels | IL-17A and IL-17F production by spleen and lymph node CD4+ T cells ([3]; heat-killed C. albicans stimulation): similarly overturned | accumulation of RORγt+ and IL-17 producing CD4+ T cells in the lungs [4]: efficiently overturned | airway responsiveness [4]: efficiently overturned | C. albicans intestinal colonization (C. albicans [5]): efficiently eliminates C. albicans intestinal colonization | protection against influenza A (influenza A virus; mouse, in vivo): similarly overturned | fungal pathogen burden in the kidney after intravenous infection (C. albicans [6]): significantly increased fungal pathogen burden in the kidney

curdlan
susceptibility to DSS (mortality) [2]: failed to improve mortality

mannan
susceptibility to DSS (mortality) [2]: mitigated | survival and accumulation of protective immune cells (influenza A virus; [7]): restored to levels comparable to C. albicans colonized controls | susceptibility to influenza A virus infection (influenza A virus; [7]): mitigated | mannan stimulated cell activation (NF-κB; with antibody blockade against TLR2): not significantly impacted | mannan stimulated cell activation (NF-κB; with antibody blockade against dectin-2): not significantly impacted | mannan stimulated cell activation (NF-κB; with antibody blockade against the mannose receptor): not significantly impacted | mannan induced NF-κB (NF-κB; with neutralization of TLR4): significantly reduced | mannan induced NF-κB (NF-κB; with neutralization of dectin-1): significantly reduced
